The source of these data is patent publication US20110020434A1, “NANOPARTICLE ARSENIC-PLATINUM COMPOSITIONS” (priority 2005, published 2011).

Where two headings read alike, the source gives them in different places. Some results are limits rather than exact numbers.

Assay [1] has as its system IM-9 (human lymphoblast B cells). The assay is classed as cell-based. The following applies: 48 h drug treatment. From the text: (§1) Cell culture. SU-DHL-4 (human lymphoma B cells) was from the Deutsche Sammlung von Mikroorganismen and Zellkulturen GmbH (DSMZ, Braunschweig, Germany). MM.1S (human multiple myeloma B cells) was previously established in the laboratory of Prof. Steven. T. Rosen (Robert H. Lurie Comprehensive Cancer Center, Northwestern University). IM-9 (human lymphoblast B cells), MDA-MB-231 (human breast adenocarcinoma cells), OVCAR-3 (human ovary adenocarcinoma cells), KB (human nasopharyngeal epidermal carcinoma cells, FR), and MCF-7 (human breast carcinoma cells, FR^-) (Sonvico et al. J. Drug Del. Sci. Tech. 2005, 15, 407-410, Chen et al. Mol. Cancer Ther. 2009, in press., herein incorporated by reference in their entireties) were purchased from ATCC (Manassas, Va., USA). All Cells were maintained at 37° C. in an incubator with 5% CO2 and harvested in the exponential phase of growth. SU-DHL-4, IM-9, and MM.1S cells were cultured in RPMI-1640 supplemented with 10% FBS, 2 mM glutamine, 100 units/mL penicillin-streptomycin, and 2.5 μg/mL Amphotericin B. MDA-MB-231 cells were cultured in DMEM/F12 supplemented with 5% cds-FBS, 2 mM glutamine, 100 units/mL penicillin-streptomycin, and 0.1% human insulin solution. OVCAR-3 cells were cultured in RPMI-1640 supplemented with 20% FBS, 100 units/mL penicillin-streptomycin, and 0.1% human insulin solution. MCF-7 cells was cultured in EMEM supplemented with 10% FBS, 2 mM glutamine, 100 units/mL penicillin-streptomycin and 2.5 μg/mL Amphotericin B. KB cells were cultured in EMEM supplemented with 10% FBS and 50 units/mL penicillin-streptomycin. For folate-targeting experiments, KB cells were transferred into folate-deficient RPMI-1640 medium for more than one week before each experiment (Lee et al. J. Biol. Chem. 1994, 269, 3198-3204, herein incorporated by reference in its entirety).
(§2) The MTS assay is one of most high throughput and economical assays for detecting viability of cancer cells. Briefly, SU-DHL-4 and IM-9 (40,000 cells/mL), and MM.1S (250,000 cells/mL) were treated with drugs and plated in quadruplicate (100 uL/well) onto 96-well plates. For MDA-MB-231 and OVCAR-3, 20,000 cells/mL were plated in quadruplicate (100 uL/well) onto 96-well plates, incubated overnight and then treated with drugs. After incubation for the indicated period at 37° C., the MTS/PMS solution (20 μL/well) was added to each well and the plates were further incubated for 4 h at 37° C. before reading the absorbance at 490 nm. Cell growth rates were expressed as a function of drug concentration on a logarithmic scale. The IC50 values (the drug concentration required for 50% inhibition of cell growth) were determined by fitting to a sigmoidal dose-response curve using Origin 6.0 software (Microcal Software, Inc., Northampton, USA). In the case of the 1.5 h (SEE FIG. 8B) or 2 h (SEE FIG. 9B) time periods, the cells treated with drugs were first incubated for 1.5 h or 2 h at 37° C., then washed twice with PBS to remove un-associated drugs or liposomes, and further incubated up to 48 h (FIG. 8b) or 72 h (FIG. 9b) in drug-free medium, followed by the MTS assay.

The subject of assay [2] is MDA-MB-231 (human breast adenocarcinoma cells). The assay is classed as cell-based. The following applies: 72 h drug treatment.
From the text: as §1, §2

Assay [3] has as its system SU-DHL-4 (human lymphoma B cells). The class given is cell-based. Particulars: 48 h drug treatment.
From the text: as §1, §2

Assay [4] relates to MM.1S (human multiple myeloma B cells). Kind of assay: MTS cell proliferation cytotoxicity assay. The class given is cell-based. Particulars: 72 h drug treatment.
From the text: as §1, §2

Assay [5] concerns OVCAR-3 (human ovary adenocarcinoma cells). Kind of assay: MTS cell proliferation cytotoxicity assay. The class given is cell-based. The following applies: 72 h drug treatment.
From the text: as §1, §2

In assay [6] the test system is KB (FR+) human nasopharyngeal epidermal carcinoma cells. Kind of assay: Guava ViaCount cytotoxicity assay, folate-targeted liposomes. The class given is cell-based.
From the text: as §1
(§3) The in vitro cytotoxicities of folate-targeted liposomes against KB and MCF-7 cells were determined by Guave ViaCount assay (Stearns et al. Cancer Res. 2006, 66, 673-681, Donaldson et al. Cell Death Differ 2009, 16, 125-138, herein incorporated by reference in their entireties) (The MTS assay is not applicable in this case because the folate moiety interferes with the reactions of MTS/PMS agents and seriously impairs accuracy of cell viability (Chen et al. Mol. Cancer Ther. 2009, in press.)). Cells were first plated in 48-well plates at a density of 30,000-60,000 cells/mL, 0.2 mL per well. After 24 h at 37° C., the media were replaced with drug solutions. Cells were thus incubated with drugs continuously for 72 h, or exposed to drugs for 3 h at 37° C., then washed with PBS ×2 and further incubated up to 72 h in drug-free medium. The same Pt concentrations of aqua-cisPt were used as in f-NB(As, Pt). Cell viability was determined by Guave ViaCount (Stearns et al. Cancer Res. 2006, 66, 673-681, Donaldson et al. Cell Death Differ 2009, 16, 125-138, herein incorporated by reference in their entireties), using a Guava EasyCyte Mini flow cytometer (Guava Technologies, Hayward, Calif.). Cells, after released from plates by trypsinization (using 0.05% trypsin/0.02% EDTA), were stained with the Guava Viacount agent, which contains two fluorescent dyes, one cell permeable and one impermeable. This allows viable and dead cell numbers to be accurately determined by Guava Viacount software. Cell growth rates were expressed as a function of drug concentration on a logarithmic scale. The IC50 values (the drug concentration required for 50% inhibition of cell growth) were determined by fitting to a sigmoidal dose-response curve using Origin 6.0 (Microcal Software, Inc., Northampton, USA) (SEE FIGS. 12F-G and Table 3).

For assay [7], the system named is MCF-7 (FR−) human breast carcinoma cells. Described as above. The assay is classed as cell-based.
From the text: as §1, §3

For a further assay, the system named is MCF-7 (FR−) cells. Kind of assay: Quantitative cellular drug uptake by ICP-MS. The class given is cell-based, human. Particulars: 3 h at 37° C.
From the text: as §1, with “OVCAR-3 cells were cultured in RPMI-1640 supplemented with 20% FBS, 100 units/mL penicillin-streptomycin, and 0.1% human insulin solution. MCF-7 cells was cultured in EMEM supplemented with 10% FBS, 2 mM glutamine, 100 units/mL penicillin-streptomycin and 2.5 μg/mL Amphotericin B. KB cells were cultured in EMEM supplemented with 10% FBS and 50 units/mL penicillin-streptomycin. For folate-targeting experiments, KB cells were transferred into folate-deficient RPMI-1640 medium for more than one week before each experiment (Lee et al. J. Biol. Chem. 1994, 269, 3198-3204, herein incorporated by reference in its entirety).” left out
Cells were plated, 24 h before each experiment, in 6-well plates with 500,000 cells per well. […] Cell-associated drug was expressed as As and Pt atoms per cell (SEE FIG. 12E and Table 4.

For assay [8], the system named is human lymphoma cell line SU-DHL-4 (CD20-positive). Kind of assay: MTS cytotoxicity assay of liposomal Ni-arsenic and Rituxan conjugate. The class given is cell-based. The following applies: 72 h (three days) at 37° C.; read-out: IC50 (arsenic level), SU-DHL-4. The procedure:
The human lymphoma B cell line of SU-DHL-4 (CD20-positive) was obtained from the American Type Culture Collection (Rockville, MD, USA). Cells were cultured in RPMI 1640 (Invitrogen Corporation) supplemented with 10% fetal bovine serum, 2 mM glutamine, 100 units/mL penicillim, 100 ug/mL streptomycin, and 2.5 ug/mL fungizone. Cells were maintained at 37° C. in an incubator with 5% CO2 and harvested in the exponential phase of growth.
Cells (25,000 cells/mL) were treated with various drugs and plated in 96-well plates. After incubation for 72 h at 37° C., the MTS solution (20 uL/well) was added to each well and the plates were further incubated for 4 h at 37° C. before the absorbance readings at 490 nm.
In a parallel experiment, SU-DHL-4 cells (100,000 cells/mL) were treated with various drugs and plated in 96-well plates. After incubation at 37° C. for 20 min, cells were washed twice using 200 uL/well of PBS and refilled with 100 uL/well of fresh medium and incubated for an additional 71.6 h. The MTS solution (20 uL/well) was added to each well and the plates were further incubated for 4 h at 37° C. before taking the absorbance readings at 490 nm.
On the technique in general: Tetrazolium dyes change colour on reduction, which living cells bring about.

As usually defined, the IC50 is the concentration that inhibits the measured activity by half. Take `N.N.[Cl][Pt][Cl]` [CisPt, cis-diamine dichloroplatinum(II)]: the IC50 in [1] (based on Pt concentration) came to 0.6 ± 0.2 µM; in assay [2] (based on Pt concentration), 14 µM; in assay [3] (based on Pt concentration), 3.5 µM; in assay [4] (based on Pt concentration) it was 1.43 µM; in assay [5] (based on Pt concentration), 2 ± 0.01 µM.
With `CC(=O)[O-].CC(=O)[O-].N.N.O.O.[Pt+2]` [Aqua-cisPt, [cis-(NH3)2Pt(OH2)2](OAc)2], the IC50 was 1 ± 0.01 µM in assay [1] (based on Pt concentration); 17.9 µM in [2] (based on Pt concentration); 5.5 µM in assay [3] (based on Pt concentration); 2.6 ± 0.8 µM in assay [5] (based on Pt concentration); 1.3 ± 0.2 µM in assay [6] (continuous 72 h incubation, Pt concentration, read-out: KB (FR^+), IC50 (μM), 72 h); 9.7 ± 2.5 µM in [6] (read-out: KB (FR^+), IC50 (μM), 3 h, 3 h exposure, washed, drug-free medium up to 72 h, Pt concentration). Besides, the IC50 in assay [7] (continuous 72 h incubation, Pt concentration, read-out: MCF-7 (FR^−), IC50 (μM), 72 h) was 12.2 ± 0.4 µM; in assay [7] (read-out: MCF-7 (FR^−), IC50 (μM), 3 h, 3 h exposure, washed, drug-free medium up to 72 h, Pt concentration), 88.9 ± 14.4 µM. In the assay on MCF-7 (FR−) cells (10 μM arsenic / 8 μM Pt), the “Cellular uptake, MCF-7 (FR^−), Pt” value was 0.24 ± 0.07 ×10^7 atoms/cell.
Consider Arsenic trioxide [As2O3], for which the IC50 came out at 2.1 ± 0.03 µM in [1] (based on As concentration); 10 µM in assay [2] (based on As concentration); 3.7 µM in [3] (based on As concentration); 0.58 µM in assay [4] (based on As concentration); 2.7 ± 1.1 µM in [5] (based on As concentration); 5.2 ± 1 µM in assay [6] (continuous 72 h incubation, As concentration, read-out: KB (FR^+), IC50 (μM), 72 h). In addition, the IC50 in assay [6] (read-out: KB (FR^+), IC50 (μM), 3 h, 3 h exposure, washed, drug-free medium up to 72 h, As concentration) is over 200 µM; in assay [7] (continuous 72 h incubation, As concentration, read-out: MCF-7 (FR^−), IC50 (μM), 72 h), 6.9 ± 1.7 µM; in assay [7] (read-out: MCF-7 (FR^−), IC50 (μM), 3 h, 3 h exposure, washed, drug-free medium up to 72 h, As concentration), 63.7 ± 22.3 µM; in assay [8] it was 1.45 µM. For the same molecule, in the assay on MCF-7 (FR−) cells (10 μM arsenic), the “Cellular uptake, MCF-7 (FR^−), As” value was 9.4 ± 2.3 ×10^7 atoms/cell.
